The source of these data is patent US12546786B2, “Circulatory biomarkers for placental or fetal health” (THE UNIVERSITY OF MELBOURNE, priority 2018, dated 2026).

The test system of the test is HTR8 cells. The experiment in a line: HTR8 placental cell line proliferation monitored in real time using the xCELLigence system. It counts as cell-based. The settings on record: 5 or 10 uM of SRI31215 administered to HTR8 placental cell line. The procedure: FIGS. 3A through P are graphical representations showing observational studies to determine whether placental SPINT1 is altered in cases of human SGA. To do this, a cohort of placentas was selected from either control, preeclamptic or SGA pregnancies. […] No change in SPINT1 mRNA expression was detected in placentas collected from patients who delivered at >34 weeks gestation (B). SPINT1 protein expression was assessed using Western blot and commercially available antibodies (C,D). […] Growth restriction is often associated with placental insufficiency and poor oxygen delivery to the placenta, resulting in placental hypoxia. The inventors assessed whether exposure of primary placental cells (cytotrophoblast cells isolated from term human placentas) to low oxygen conditions (1% Oxygen for hypoxia vs 8% oxygen for normoxia) would alter SPINT1 mRNA and protein expression and protein secretion. […] Given previous evidence in mice that a lack of SPINT1 may be associated with a poorly developed placenta, the inventors next set out to assess whether silencing SPINT1 using siRNA knockdown in the HTR8 placental cell line would affect cellular proliferation assessed in real time using the xCELLigence system. […] To do this, a commercially available SPINT1 mimetic called SRI31215 (Glixx laboratories) was administered to HTR8 cells and their proliferation monitored using the xCELLigence system. […]

As for `CC1CN(CC2CCN(Cc3ccccc3)CC2)C(=O)N(c2cccc(C(=N)N)c2)C1.O=C(O)C(F)(F)F` (stereo not shown) [SRI31215], the HTR8 proliferation entry is reported as “enhanced HTR8 proliferation”.
